Values quoted from earlier work in patent US20020160947A1, “Synergistic method for prolonging allograft survival” (Millennium Pharmaceuticals, Inc., priority 2001, published 2002).

System: activated T-cells
Details: activated versus resting T cells

CC(=O)N[C@@H](CSC(=O)[C@]1([C@@H](O)C(C)C)NC(=O)[C@H](C)[C@@H]1O)C(=O)O [lactacystin]
induction of apoptosis of T cells: induction of apoptosis of activated T-cells, but not resting T cells
